According to patent publication US8273553B2, “Production of growth hormone in serum-free cell culture medium for mammalian cells” (Ares Trading S.A., priority 2004, dated 2012):
Where two headings read alike, the source gives them in different places.

Key:
[1] = system: r-hGH producing cells of working cell bank 15 (WCB15); experiment: r-hGH productivity in six-well plates (P6 system), DMEM with additions (Example 2); assay type: cell-based; settings: for average productivity, % of control: duplicate; for response μg/well/hrvst / response as % “−1−1−1”: Cr 2.5 nM, Ni 1 nM in DMEM, average of 14 harvests; for response as % “−1−1−1”: relative to no addition; for % increase of hGH productivity: 6-well system
Method: The experiments were carried out using the working cell bank 15 (WCB15), which is now in current use in normal production.
Scale-down screening experiments were carried out in six-well plates COSTAR P6 of treated CELLBIND polystyrene (CORNING catalogue No. 3335) supplied with 5 mL of culture medium per well. In this case P6 plates were seeded with cells taken from the subculture 3 (standard manufacturing process) to an approximate density of 5×10^5 viable cells/well and then incubated at 37° C., within controlled atmosphere of CO2 at 5%, with standard growth medium or under 13% CO2 when changing to DMEM production medium modified as per the specific experimental plan.
(§1) Measurement of r-hGH in the culture medium was carried out daily by the currently approved reverse-phase HPLC titration.
In other experiments, metal trace elements were added to the DMEM in three concentrations and tested for effects on r-hGH productivity in 6-well plates. Each concentration was tested in duplicate and the average value was calculated. In all cases the concerned salt was prepared as 1000× stock solution from which the corresponding aliquots were taken and added to the medium.

[2] = system: hGH expressing C127 cells; experiment: rhGH productivity of hGH expressing C127 cells in roller bottles, DMEM supplemented with trace elements (Example 1); assay type: cell-based, murine; settings: for productivity increase, amino acid added together with the metals: Zn 0.5 μM, Cu 0.02 μM, Ferric Citrate 4.8 μM plus Gln 4.8 mM or Cys 0.29 mM; for average productivity increase compared to control: 10 μM continuously added to DMEM, production phase 14 days; for productivity increase at the assayed concentration (in words): 10 μM in DMEM; for % INCREASE OF PRODUCTIVITY: single ion in DMEM at growth medium concentration: Zn 1.50300, Cu 0.02560, Se 0.11400, Co 0.00840 μM
Method: The addition of the different supplements assayed (metal solutions etc.) in different experiments was carried out directly on fresh culture medium.
Genetically modified C127 murine cells (ATCC CRL 1616) were used for the expression of the recombinant human growth hormone (rhGH). The vector is based on BPV69T comprising the pBR322 multiple cloning site and comprising 1.6 kb of the rhGH minigene under the control of mouse metallothionein-1 (MT-1) promoter. Cultures derived from one Working Cell Bank obtained from different rhGH production batches were used in the experiments.
Cell cultures were kept incubated at 36° C.±0.5° C. and 0.4 rpm in 2125 cm^2 roller bottles containing 375 mL±15 mL of culture medium or in 1700 cm cm^2 roller bottles containing 300 mL of culture medium.
Culture medium used for the rhGH production phase was DMEM with 4.5 g/L glucose buffered with sodium bicarbonate (3.7 g/L).
Measurement of rhGH in the culture medium was carried out daily by reverse-phase HPLC titration:
Chromatography conditions are: • Elution by gradient: starting with a mixture phase A/phase B 60/40 ending at phase A/phase B 20/80. Gradient complete in 5 minutes (slightly variable depending on instrumentation in use) • Injection volume 50 μliters • Detection: UV absorbance at 215 nm. • P Calibration curve: r-hGH standard at 10, 50, 100, 120 and 150 μg/ml
The r-hGH concentration of a sample is determined by comparison with standard r-hGH concentrations.
Productivity is expressed as mg of rhGH per roller bottle. Raw data are rhGH concentration in the harvest (as measured by HPLC) and total number of roller bottles harvested. Typically a roller bottle during harvest phase contains around 10^9 cells.

[3] = system: r-hGH producing cells of working cell bank 15 (WCB15); assay type: cell-based; settings: for Product. up to H14 / Product. up to H25: relative to control
Method: According to the approved work instructions, cell cultures were kept incubated at 36° C.±0.5° C. and 0.4 rpm in 1700 cm^2 roller bottles containing 400 mL±20 mL of culture medium.
as §1

[4] = pH in a range of 6.5 to 8.5; cited from earlier work
[5] = system: cell monolayer of rhGH-producing cultures; experiment: peeling-off: detachment of the cell monolayer from the roller bottles; settings: roller bottles with CDX, second part of harvest period

[Sn] [Sn]
average productivity, % of control ([1]; 1 nM in DMEM): 101.8% | average productivity, % of control ([1]; 10 nM in DMEM): 97.7% | average productivity, % of control ([1]; 100 nM in DMEM): 96.5% | effect of higher concentrations on productivity (in words) ([1]; highest tested concentrations): higher concentrations seem to reduce productivity

NC(=O)CC[C@H](N)C(=O)O [glutamine, L-glutamine]
productivity increase, amino acid added together with the metals [2]: 81.1%

O.O.[Ba+2].[Cl-].[Cl-] [Ba, Barium Chloride (BaCl2.2H2O)]
average productivity increase compared to control [2]: 1.1% | productivity increase at the assayed concentration (in words) [2]: Neither Barium nor Chromium showed productivity increase | average productivity, % of control ([1]; 1 nM in DMEM): 103.1% | average productivity, % of control ([1]; 10 nM in DMEM): 101.9% | average productivity, % of control ([1]; 100 nM in DMEM): 98.9%

O.O.O.O.O.O.O=[N+]([O-])[O-].O=[N+]([O-])[O-].[Ni+2] [Ni, Nickel Nitrate (Ni(NO3)2.6H2O)]
average productivity, % of control ([1]; 1 nM in DMEM): 103.1% | average productivity, % of control ([1]; 10 nM in DMEM): 102.1% | average productivity, % of control ([1]; 100 nM in DMEM): 98.6% | response μg/well/hrvst ([1]; Co 5 mcrM): 257.0 μg/well/hrvst | response as % “−1−1−1” ([1]; Co 5 mcrM): 101.2%

O.O.O.O.O.O.O.O.O.O.O.O.O=S(=O)([O-])[O-].O=S(=O)([O-])[O-].[Cr+3].[K+] [Cr, Chromium Potassium Sulfate (K[Cr(SO6H4)2(H2O)2].6H2O)]
productivity increase at the assayed concentration (in words) [2]: Neither Barium nor Chromium showed productivity increase | average productivity, % of control ([1]; 1 nM in DMEM): 102.0% | average productivity, % of control ([1]; 10 nM in DMEM): 102.8% | average productivity, % of control ([1]; 100 nM in DMEM): 97.8% | response μg/well/hrvst ([1]; Co 5 mcrM): 253.6 μg/well/hrvst | response as % “−1−1−1” ([1]; Co 5 mcrM): 99.8%

O.O.O.O.O.O=S(=O)([O-])[O-].[Cu+2] [Cu, Copper Sulfate (CuSO4.5H2O)]
increase in productivity ([2]; Copper 0.02 μM in DMEM): 32.1%±9.4% | optimal supplementation concentration in DMEM ([2]; Zinc 0.5 μM and Ferric Citrate 4.8 μM constant): 25.6 nM | % INCREASE OF PRODUCTIVITY [2]: 37.50%

O.O.O.O.O.O.[Cl-].[Cl-].[Co+2] [Co, Cobalt Chloride (CoCl2.6H2O)]
average productivity increase compared to control [2]: 32.4% | rhGH productivity increase compared to control, continued induction ([2]; cobalt continuously added (10 μM)): 32.5% | rhGH productivity increase compared to control, intermittent induction ([2]; cobalt intermittently added (20 μM CoCl2.6H2O)): 9% | % INCREASE OF PRODUCTIVITY [2]: −3.20% | Product. up to H14 ([3]; Co 1 mcrM added to DMEM): 107% | Product. up to H25 ([3]; Co 1 mcrM added to DMEM): 102% | Product. up to H14 ([3]; Co 2 mcrM added to DMEM): 110% | Product. up to H25 ([3]; Co 2 mcrM added to DMEM): 102% | Product. up to H14 ([3]; Co 5 mcrM added to DMEM): 113% | Product. up to H25 ([3]; Co 5 mcrM added to DMEM): 101% | Product. up to H14 ([3]; Co 10 mcrM added to DMEM): 117% | Product. up to H25 ([3]; Co 10 mcrM added to DMEM): 104% | statistical analysis of effect on productivity (in words) ([1]; 2^3 factorial design, Co 5 mcrM): significant effect on productivity | response μg/well/hrvst ([1]; Co 5 mcrM): 272.1 μg/well/hrvst | response as % “−1−1−1” ([1]; Co 5 mcrM): 107.1%

N[C@@H](CSSC[C@H](N)C(=O)O)C(=O)O [cystine, L-cystine]
productivity increase, amino acid added together with the metals [2]: 69.9%

hGH: single polypeptide chain of 191 amino acids having two disulfide bonds
solubility in aqueous buffers [4]: > 10 µg/mL

O.O.O.O.O.O.O.O.O=S(=O)([O-])[O-].O=S(=O)([O-])[O-].O=S(=O)([O-])[O-].[Cd+2].[Cd+2].[Cd+2] [Cd, Cadmium Sulphate (CdSO4.8/3H2O)]
increase in r-hGH productivity over the control ([3]; Cd 100 nM, roller bottles, two independent experiments): 12-15% | average productivity, % of control ([1]; 1 nM in DMEM): 100.8% | average productivity, % of control ([1]; 10 nM in DMEM): 103.6% | increase of productivity ([1]; 100 nM): 20% | average productivity, % of control ([1]; 100 nM in DMEM): 120.6%

Methyl-β-Cyclodextrin [CDX]
peeling off in the roller bottles (visual observation) [5]: much less peeling off | productivity relative to the control ([3]; CDX 116 mg/L (0.1 mM), Cadmium 0.1 micromolar, Cobalt 1 micromolar): 104% | % increase of hGH productivity ([1]; CDX 25 mg/L, 0.02 mM): 2% | % increase of hGH productivity ([1]; CDX 50 mg/L, 0.04 mM): 4% | % increase of hGH productivity ([1]; CDX 80 mg/L, 0.07 mM): 5% | % increase of hGH productivity ([1]; CDX 116 mg/L, 0.1 mM): 7% | increase in productivity ([1]; CDX only (FIG. 19)): 7%

O.O.O.O.O.O.O.O=S(=O)([O-])[O-].[Zn+2] [Zn, Zinc sulfate (ZnSO4.7H2O)]
concentration at which maximum productivity level (plateau) is observed ([2]; Ferric Citrate 4.8 μM and Copper 0.025 μM constant): above 200 nM | increase in productivity ([2]; Zinc 0.5 μM in DMEM): 16.8%±1.6% | increase in productivity ([2]; Zinc 1.5 μM in DMEM): 10.3%±5.0% | productivity at plateau over the average control value ([2]; Zinc above 200 nM, Ferric Citrate 4.8 μM, Copper 0.025 μM): about 60% | % INCREASE OF PRODUCTIVITY [2]: 12.10%

[Mn] [Mn]
average productivity, % of control ([1]; 1 nM in DMEM): 101.3% | average productivity, % of control ([1]; 10 nM in DMEM): 103.8% | average productivity, % of control ([1]; 100 nM in DMEM): 101.8%

O.O.O.O.O.O=[Se]([O-])[O-].[Na+].[Na+] [Se, Sodium Selenite (Na2SeO3.5H2O)]
% INCREASE OF PRODUCTIVITY [2]: −3.10% | average productivity, % of control ([1]; 1 nM in DMEM): 101.5% | average productivity, % of control ([1]; 10 nM in DMEM): 102.4% | average productivity, % of control ([1]; 500 nM in DMEM): 101.4%
